Values quoted from earlier work as cited in patent US20080233128A1, “Treatment of Viral Infections” (priority 2006, published 2008).

Test system: circulating T-cells

Question: Which “time to full recovery of T-cells” value (after a single dose, FIG. 1) does the source give for alemtuzumab here?
Answer: ≥ 3 months

Question: What about the “T-cell depletion (killing of circulating T-cells)” value (single dose, FIG. 1, mean ALC as a function of time) of the same substance?
Answer: kill all circulating T-cells
